Columns and labels:
Assay in all cases: relative viability (nuclei count vs DMSO), 5 days (fraction); higher = more cells survive
Vismodegib + Bortezomib = compound: CS(=O)(=O)c1ccc(C(=O)Nc2ccc(Cl)c(-c3ccccn3)c2)c(Cl)c1 [Vismodegib] + CC(C)C[C@H](NC(=O)[C@H](Cc1ccccc1)NC(=O)c1cnccn1)B(O)O [Bortezomib] (partner 0.002 µM)
Summary of the method: (§1)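 Relative viability was taken as the ratio of nuclei in treated wells to nuclei in vehicle wells. Lung cancer cell lines in 1536-well plates received compounds by pin tool one day after seeding, either one drug alone or a fixed anchor-drug dose plus five library-drug doses (not always all listed) in √10 steps. Nuclei were counted on 4× images after 5 days of treatment, and values are medians of duplicate plates.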

Vismodegib + Foretinib = compound: CS(=O)(=O)c1ccc(C(=O)Nc2ccc(Cl)c(-c3ccccn3)c2)c(Cl)c1 [Vismodegib] + COc1cc2c(Oc3ccc(NC(=O)C4(C(=O)Nc5ccc(F)cc5)CC4)cc3F)ccnc2cc1OCCCN1CCOCC1 [Foretinib] (partner 0.25 µM)
Summary of the method: as §1

Vismodegib + Lapatinib = compound: CS(=O)(=O)c1ccc(C(=O)Nc2ccc(Cl)c(-c3ccccn3)c2)c(Cl)c1 [Vismodegib] + CS(=O)(=O)CCNCc1ccc(-c2ccc3ncnc(Nc4ccc(OCc5cccc(F)c5)c(Cl)c4)c3c2)o1 [Lapatinib] (partner 2 µM)
Summary of the method: as §1

VE-821 + Palbociclib = compound: CS(=O)(=O)c1ccc(-c2cnc(N)c(C(=O)Nc3ccccc3)n2)cc1 [VE-821] + CC(=O)c1c(C)c2cnc(Nc3ccc(N4CCNCC4)cn3)nc2n(C2CCCC2)c1=O [Palbociclib] (partner 0.5 µM)
Summary of the method: as §1

Cell Line	relative viability (Vismodegib + Bortezomib; first compound 0.08 µM)	relative viability (Vismodegib + Bortezomib; first compound 0.253 µM)	relative viability (Vismodegib + Bortezomib; first compound 0.8 µM)	relative viability (Vismodegib + Bortezomib; first compound 2.53 µM)	relative viability (Vismodegib + Bortezomib; first compound 8 µM)	relative viability (Vismodegib + Foretinib; first compound 0.08 µM)	relative viability (Vismodegib + Foretinib; first compound 0.253 µM)	relative viability (Vismodegib + Foretinib; first compound 0.8 µM)	relative viability (Vismodegib + Foretinib; first compound 2.53 µM)	relative viability (Vismodegib + Foretinib; first compound 8 µM)	relative viability (Vismodegib + Lapatinib; first compound 0.08 µM)	relative viability (Vismodegib + Lapatinib; first compound 0.253 µM)	relative viability (Vismodegib + Lapatinib; first compound 0.8 µM)	relative viability (Vismodegib + Lapatinib; first compound 2.53 µM)	relative viability (Vismodegib + Lapatinib; first compound 8 µM)	relative viability (VE-821 + Palbociclib; first compound 0.08 µM)	relative viability (VE-821 + Palbociclib; first compound 0.253 µM)	relative viability (VE-821 + Palbociclib; first compound 0.8 µM)	relative viability (VE-821 + Palbociclib; first compound 2.53 µM)	relative viability (VE-821 + Palbociclib; first compound 8 µM)
201T	1.13	1.07	1.09	1.09	1.09	1.17	1.04	0.951	1.08	1.08	1.05	0.998	0.946	1.04	1.02	0.37	0.35	0.355	0.318	0.325
A549						1.03	0.928	1.05	0.969	0.943	1.02	0.972	0.971	0.979	0.908					
A-427	0.991	0.945	0.856	0.968	1.09	1	1.01	1.08	1.11	1.11	1.09	1.04	1.01	0.977	1.13	0.55	0.547	0.565	0.562	0.449
ABC-1	0.332	0.244	0.331	0.299	0.324	0.894	1.15	1.14	1.08	1.23		1.17	1.14	1.02	1.15	0.651	0.788	0.601	0.695	0.633
BEN	0.574	0.787	0.819	0.846	0.885	0.871	0.799	0.606	0.642	0.644	0.77	0.718	0.778	0.844	0.733	0.504	0.461	0.469	0.517	0.642
CAL-12T		0.882	0.91	0.935	0.999	1.08	1.06	1.05	1.06	1.16		0.723	0.578	0.562	0.75	0.571	0.373	0.472	0.51	0.308
COR-L23	1	0.938	0.983	0.916	1.09	0.957	0.929	0.891	0.973	1.06	0.93	0.802	0.901	0.986	1.02	0.284	0.307	0.32	0.394	0.307
COR-L 105	0.765	0.907	0.778	0.753	0.665	1.23	0.829	1.17	0.82	0.994	0.36	0.38	0.392	0.363	0.337	0.432	0.339	0.443	0.409	0.399
Calu-6	0.969	1.03	1.02	1.05	0.987	0.761	0.837	0.863	0.852	0.9	1.13	1.08	1.06	1.09	1.03					
ChaGo-K-1	0.971	0.957	0.845	0.744	1.04	1.03	0.918	0.92	0.838	0.886						0.95	0.956	0.909	0.905	0.803
EBC-1	0.481	0.564	0.567	0.559	0.67	0.102	0.102	0.0802	0.097	0.105	0.215	0.189	0.205	0.195	0.215					
EKVX	1.1	1.09	1.1	1.06	1.03	0.744	0.702	1.05	0.724	0.737	0.21	0.223	0.164	0.243	0.197	0.458	0.361	0.341	0.429	0.4
EMC-BAC-2	1.08	1.03	1.05	1.11	1.05	0.977	0.965	0.95	1	1.04	0.891	0.857	0.839	0.933	0.9	0.531	0.491	0.528	0.545	0.524
EPLC-272H	0.988	0.783	0.864	1.14	0.723	0.787	0.727	0.68	0.785	0.776	0.789	0.893	0.947	0.939	0.91	0.342	0.313	0.295	0.33	0.326
HCC-44	0.918	0.816	0.897	0.841	0.901						0.998	1.02	0.965	1.04	0.991	0.956	0.981	0.992	1.08	1.07

— the supplement of paper PMC10307832
